Literature values as cited in patent publication US5739336A, “1,3,8-triaza- and 3,8-diaza-1-oxaspiro [4,5] decane derivatives” (Syntex (U.S.A.) Inc., priority 1996, dated 1998).

Assays:
migraine = conditions: human, in vivo
rats [1] = tested on: rats
[2] = tested on: panic disorder patients or obsessive compulsive disorder patients
rat = conditions: SI and elevated X-maze models
rats [3] = tested on: rats; remark: listed apart in the source
human volunteers [4] = conditions: for slow wave sleep (SWS): human/healthy volunteers
human volunteers [5] = tested on: human volunteers
human volunteers [6] = tested on: human volunteers; remark: listed apart in the source
[7] = tested on: patients withdrawing from other drugs of abuse

Row | Compound | clinical effectiveness as antimigraine agent (migraine) | alcohol preference (rats [1]) | levels of panic and/or anxiety [2] | anxiogenic effects (rat) | penile erections (rats [3]) | rapid eye movement sleep (human volunteers [4]; human volunteers) | sleep efficiency (human volunteers [4]; human volunteers) | total sleep time (human volunteers [4]; human volunteers) | slow wave sleep (SWS) (human volunteers [4]) | craving for alcohol (abstaining alcoholics) | anxiety on administration (human volunteers [5]) | migraine-like headaches (human volunteers [6]) | usefulness in withdrawal from other drugs of abuse [7] | cocaine and fentanyl preference (rat models of addiction) | alcohol intake (chronic alcoholics) | sleep onset latency (human volunteers [4]; healthy volunteers) | subjective sleep quality (human volunteers [4]; healthy volunteers)
1 | O=C(c1ccc(F)cc1)C1CCN(CCn2c(=O)[nH]c3ccccc3c2=O)CC1 [ketanserin] | is not | has no affect on preference for alcohol | – | – | – | – | – | – | – | – | – | – | – | – | – | – | –
2 | Clc1cccc(N2CCNCC2)c1 [mCPP, 1-(3-chlorophenyl)piperazine] | – | – | increases levels of panic and/or anxiety | produces anxiogenic effects | produces penile erections in rats | reduces total sleep time, sleep efficiency, slow wave sleep (SWS) and rapid eye movement sleep | reduces total sleep time, sleep efficiency | reduces total sleep time | reduces total sleep time, sleep efficiency, slow wave sleep (SWS) | induces a craving for alcohol | causes anxiety | causes migraine-like headaches | – | – | – | – | –
3 | Cc1nc2sccn2c(=O)c1CCN1CCC(=C(c2ccc(F)cc2)c2ccc(F)cc2)CC1 [ritanserin] | – | reduces alcohol preference | – | – | – | – | – | – | increases SWS | – | – | – | is useful in patients withdrawing from other drugs of abuse | reduces both cocaine and fentanyl preference | decreases alcohol intake | reduces sleep onset latency | improves subjective sleep quality
